Read-outs that look alike come from different tables or passages of the source.
What was measured:
Assay in all cases: Alamar Blue cytotoxicity study
[1] = tested on: Granta 519 cells; assay type: cell-based, human; settings: for Combination Index (Chou-Talalay): Granta, 120 h; for IC50: Homo sapiens
Protocol: (§1) Cells were treated with either Humalutin, olaparib or a combination of both and seeded into 96 well-plates. At each time point after treatment, cells were incubated with Alamar Blue (Thermo Fisher, DALL1100) for 4 hours and fluorescence measurements were performed using a multiplate reader Fluoroskan ascent FL to assess cell proliferation and viability. All experiments were done in duplicates using 2 samples in each experiment. Data were normalized to the untreated controls.
(§2) Cells were incubated with 0.25, 0.5, 1, 2.5 or 5 μg/ml of Humalutin in cell culture flasks and incubated at 37° C./5% CO2. After 18-20 hours cells were washed and resuspended in fresh medium. Cell bound activity after washing was measured using a calibrated gamma detector (Cobra II auto-gamma detector, Packard Instrument Company, Meriden, Conn., USA). Cell concentration and viability was also measured after washing using Guava ViaCount Cell Dispersal Reagent for Flow Cytometry (Merck GaA, Darmstadt, Germany) and measured in a Guava EasyCyte 12HT (Merck KGaA, Darmstadt, Germany) to determine how well the cells survived the incubation. Cells were seeded in 96 well plates.
(§3) Cells were seeded in 96 well plates pre-coated with from 1 to 100 μM olaparib in 0.2 ml medium and incubated at 37° C./5% CO2 for 72 hours before the cytotoxic effect was measured using alamar blue cell viability assay.
(§4) Cells were incubated with either 0, 0.5 μg/ml or 1 μg/ml Humalutin and the same procedure as described before for treatment with humalutin alone and olaparib alone was followed. Concentrations of olaparib used were between 1 and 100 μM.
(§5) The Chou-Talalay model was used for synergy calculations using the Compusyn software. R (goodness of fit) was calculated for the individual treatments and should be over 0.90 in in vitro culture experiments in order to use the calculated combination index (CI). The CI is an indication of synergy: 0-0.9 is considered synergy. Synergysm grading was used as described in WO2006004917A2. […]
as §2, with “viability were” for “viability was”, “plates. Alamar blue viability measurements were performed 120 h after seeding.” for “plates.”

[2] = tested on: DOHH2 cells; assay type: cell-based, human; settings: for Combination Index (Chou-Talalay): 120 h; for IC50: Homo sapiens
Protocol: as §1, §2, §3, §4, §5
as §2, with “viability were” for “viability was”, “plates. Alamar blue viability measurements were performed 120 h after seeding.” for “plates.”

[3] = tested on: Rec-1 cells; assay type: cell-based; settings: Homo sapiens, Rec1; Rec-1, 72 h incubation after seeding
Protocol: as §1, §2
(§6) Cells were seeded in 96 well plates pre-coated with from 1 to 100 μM olaparib in 0.2 ml medium and incubated at 37° C./5% CO2 for 72 hours before the cytotoxic effect was measured using alamar blue cell viability assay. […]

[4] = tested on: WSU-DLCL2 cells; assay type: cell-based; settings: Homo sapiens, WSUDLCL2; WSU-DLCL2, 72 h incubation after seeding
Protocol: as §1, §2, §6

[5] = tested on: SUDHL4 cells; assay type: cell-based, human; settings: for IC50: Homo sapiens
Protocol: as §2, with “plates. […]” for “plates.”
as §1, with “venetoclax” for “olaparib”
Cells were incubated with either 0, 0.5 μg/ml or 1 μg/ml Humalutin and the same procedure as described before for treatment with Humalutin alone and venetoclax alone was followed.
The Chou-Talalay model was used for synergy calculations using the Compusyn software. R (goodness of fit) was calculated for the individual treatments and should be over 0.90 in in vitro culture experiments in order to use with confidence the calculated combination index (CI). The CI is an indication of synergy: 0-0.9 is considered synergy. Synergysm grading was used as described in WO2006004917A2.
as §2, with “viability were” for “viability was”, “plates. Alamar blue viability measurements were performed 120 h after seeding.” for “plates.”
(§7) Cells were incubated with either 0 (control), 0.5 μg/ml or 1 μg/ml Humalutin for 18 to 20 hours. Cells were then washed and resuspended in fresh medium.

[6] = tested on: U2932 cells; assay type: cell-based, human; settings: for IC50: Homo sapiens
Protocol: as §1, §2, §3, §4, §5
as §2, with “viability were” for “viability was”, “plates. Alamar blue viability measurements were performed 120 h after seeding.” for “plates.”
as §7

## O=C(c1cc(Cc2n[nH]c(=O)c3ccccc23)ccc1F)N1CCN(C(=O)C2CC2)CC1 [olaparib]
[1]; Granta 519, Humalutin 0.5 or 1 μg/ml, 72 h
  Synergism grade by Combination Index, combination with Humalutin: very strong synergism
[1]; olaparib dose 2 + Humalutin 1 μg/ml
  Combination Index (Chou-Talalay): 1.77
[1]; olaparib dose 4 + Humalutin 1 μg/ml
  Combination Index (Chou-Talalay): 0.15
[1]; olaparib dose 8 + Humalutin 1 μg/ml
  Combination Index (Chou-Talalay): 0.06
[1]; olaparib dose 10 + Humalutin 1 μg/ml
  Combination Index (Chou-Talalay): 0.10
[1]; read-out: IC50 at 120 h, Granta 519, 120 h incubation after seeding
  IC50: 15000 nM
[1]; Granta 519, 72 h incubation after seeding, read-out: IC50
  IC50: 2680 nM
[2]; DOHH2, olaparib dose 2 + Humalutin 1 μg/ml
  Combination Index (Chou-Talalay): 1.34
[2]; DOHH2, olaparib dose 4 + Humalutin 1 μg/ml
  Combination Index (Chou-Talalay): 0.64
[2]; DOHH2, olaparib dose 8 + Humalutin 1 μg/ml
  Combination Index (Chou-Talalay): 0.43
[2]; DOHH2, olaparib dose 10 + Humalutin 1 μg/ml
  Combination Index (Chou-Talalay): 0.34
[2]; DOHH-2, read-out: IC50 at 120 h, DOHH2, 120 h incubation after seeding
  IC50: 7560 nM
[2]; DOHH-2, DOHH2, 72 h incubation after seeding, read-out: IC50
  IC50: 2060 nM
[3]
  IC50: 721 nM
[4]
  IC50: 1260 nM
[5]; SU-DHL-4, read-out: IC50 at 120 h, SUDHL-4, 120 h incubation after seeding
  IC50: 22100 nM
[5]; SU-DHL-4, SUDHL4, 72 h incubation after seeding, read-out: IC50
  IC50: 1040 nM
[5]; SUDHL4, Humalutin 0.5 or 1 μg/ml, 72 h
  Synergism grade by Combination Index, combination with Humalutin: moderate antagonism
[6]; read-out: IC50 at 120 h, U2932, 120 h incubation after seeding
  IC50: 89100 nM
[6]; U2932, 72 h incubation after seeding, read-out: IC50
  IC50: 1930 nM
[6]; U2932, Humalutin 0.5 or 1 μg/ml, 72 h
  Synergism grade by Combination Index, combination with Humalutin: very strong synergism

From patent publication US20210106703A1, “RADIOIMMUNOCONJUGATES IN COMBINATION WITH OTHER DRUGS AS TREATMENT AGAINST NHL” (Nordic Nanovector ASA, priority 2017, published 2021)
